{"source": "patent US6905834B1", "about": "“Bioluminescent bioreporter integrated circuit detection methods” (UT-Battelle, LLC, priority 1997, dated 2005)", "type_in_all_cases": "cell-based, Pseudomonas putida", "key": {"[1]": {"tested_on": "P. putida TVA8"}, "[2]": {"tested_on": "P. putida B2", "test": "Assays of growing cells of tod-lux reporter P. putida B2", "settings": "for bioluminescent response: 90 minutes exposure", "experimental": "(§1) In the batch and reactor studies, bioluminescence was measured using a photomultiplier, which converts the light to an electric current. The photomultiplier in the resting cell assays and the reactor system was connected to a computer and bioluminescence as namps current was recorded.\nAssays of growing cells were conducted as described by Heitzer et al. (1992). An overnight culture from a frozen stock of P. putida B2 was prepared in a 250-ml Erlenmeyer flask containing 100 ml LB and 50 μg ml^−1 kanamycin. A subculture was prepared and cells were used in mid-log phase (OD546 of 0.45-0.48). A 2.5-ml aliquot was added to 2.5 ml mineral salts medium (MSM) containing 0-50 mg L^−1 toluene or 10-100 μl of JP4 jet fuel-saturated MSM. The concentration of toluene in water saturated with JP4 jet fuel is approximately 8 mg L^−1 (Smith et al., 1981). Bioluminescence was measured every 30 min."}, "[3]": {"tested_on": "P. putida B2", "test": "Immobilized cell reactor (DVR) with alginate-encapsulated P. putida B2: bioluminescence and TCE co-metabolism", "experimental": "as §1\nP. putida B2 was encapsulated in alginate beads for the immobilized cell reactor system. Cells were grown in 1 L LB to an OD546 of 1.2 and were centrifuged at 5500×g for 10 min, washed three times in 0.9% NaCl and suspended in 40 ml 0.9% NaCl. The cell suspension was added to 80 ml of an alginic acid solution (28 g L^−1 low viscosity alginate, 0.9% NaCl) (Webb, 1992). The cell-alginate suspension was placed in a 60-ml syringe, forced through a 25-gauge needle, and allowed to drop into a 0.5 M CaCl2 Solution. The alginate was cross-linked by the Ca^2+ ions, thus encapsulating the cells. The cells were subsequently placed in a fresh solution of 0.1 M CaCl2 and allowed to sit for 30 min prior to use.\nA differential volume reactor (DVR) was used to simulate a section of an ideal plug flow reactor. Influent to the reactor was dispersed through a porous metal frit to provide a flat velocity profile to the bed. The reactor measured 5.0 cm i.d.×5.0 cm long. A complete description of this reactor can be found in Webb et al. (1991). In this investigation, a system was designed incorporating the DVR as illustrated in FIG. 17. The system was equipped with three Millipore (Bedford, Mass.) stainless steel substrate containers rated to 690 kPa. The feed from the substrate vessels to the reactor inlet was controlled by two Filson (Middleton, Wis.) 301 HPLC pumps. A flow rate of 0.4 ml min^−1 was maintained. The substrate vessels were pressurized with oxygen to provide the system with an electron acceptor. All medium vessels contained trace mineral medium (Lackey et al., 1993) with the addition of 3 mg L^−1 pyruvic acid and a 0.1 M solution of Tris-base (pH 7.0). phosphate buffers were not used since phosphate ions complex with Ca^2+ ions and disrupt with alginate crosslinking. In addition to this medium, two of the vessels contained either TCE or toluene. The inlet concentration of toluene was altered by using square-wave perturbations with 20-h cycles (10 h with toluene, 10 h without toluene) using an HPLC pump controlled by a timer. During feed portions of the cycle, 10 mg L^−1 toluene was introduced into the inlet of the reactor. The inlet TCE concentration was constant at 20 mg L^−1.\nAnalysis of TCE in the reactor effluent was performed online using a stripping column (12.5 cm length and 0.4 cm inner diameter) packed with 3-mm glass beads to provide adequate surface area for TCE separation. TCE was stripped with helium, the GC carrier gas. The stripping column outlet was attached to a gas chromatograph (GC, Hewlett Packard (Wilmington, Del.) (HP) 5890 Series II) with an electron capture detector by a heated sample line maintained at 75° C. Automatic injections (25 μl) were made by a computerized control process (HP Chem Station software). The GC was equipped with a cross-linked methyl silicone capillary column (length 30 n, i.d 0.2 mm, 0.33-μm film thickness) while the oven was operated isothermally at 60° C. Other operating parameters included an injection temperature of 150° C., detector temperature of 200° C. and a split ratio of 10:1. This system was equipped with a bypass line around the reactor in order to calibrate the stripping column.\nToluene samples were removed at 0.5-ml aliquots from the effluent sampling port (FIG. 17) and injected into 1.5 ml sample vials. Headspace analysis was performed using a Shimadzu (Columbia, Md.) GC-9A gas chromatograph equipped with a 2.44-m, 3.2-mm diameter Poropak N packed column and a flame ionization detector. The isothermal temperature of the oven was 210° C., and both the detector and injector temperatures were 220° C."}, "[4]": {"tested_on": "P. putida B2", "test": "Resting cell assays of P. putida B2, single and multiple toluene exposures", "settings": "10 mg/L toluene; for Bioluminescent response rate, Multiple Exposure Vial: single vial with multiple additions; for Bioluminescent response rate, Single Exposure Vials: new vial previously unexposed", "experimental": "as §1\nCells for resting cell assays were grown on MSM supplemented with 2.7 g L^−1 succinate. A culture of P. putida B2 was harvested at on OD546 of approximately 0.8. The cells were centrifuged at 15000×g for 10 min, and resuspended in MSM to OD546 of 0.6 four milliliters of culture were added to each of six 26-ml vials with Mininert valves (Dynatech, Chantilly, Va.) with stir bars. One vial was used for multiple toluene exposures, while the remainder were used for single exposures. The vials were magnetically stirred in a light-tight sampling cell. Toluene-saturated MSM and MSM alone were added to yield an OD546 of 0.47, and 10 mg L^−1 toluene was injected six times over a 130-h period of the multiple-exposure vial. At the same time points, a single-exposure vial was injected with 10 mg L^−1 toluene. The light response was recorded every 3 min with a photomultiplier connected to a data acquisition computer."}}, "note": "Read-outs that look alike come from different tables or passages of the source.", "data": [{"smiles": "Cc1ccccc1", "note": "[Toluene, toluene]", "values": [{"measurement": "light response (in words)", "setting": "[1]; approximately 50 mg/L (JP-4 approx. 2%), 2 h", "result": "significant light response"}, {"measurement": "bioluminescence relative to background bioluminescence level", "setting": "[1]; at 50 μg toluene/L", "result": 80, "unit": "fold"}, {"measurement": "Specific Bioluminescence", "setting": "[1]; exposure 2 hours, approximately 50 mg/L, normalized to final OD546, average ± SD of three replicates", "result": "291 ± 6", "unit": "namp/OD"}, {"measurement": "Specific Bioluminescence", "setting": "[1]; toluene 50 mg/L, 2 h exposure", "result": 290, "unit": "namp/OD546"}, {"measurement": "bioluminescent response (in words)", "setting": "[2]; 0 and 0.01 mg/l toluene", "result": "not a significant bioluminescent response"}, {"measurement": "bioluminescent response", "setting": "[2]; 0.1 mg/l toluene", "result": 2.4, "unit": "namp"}, {"measurement": "bioluminescent response", "setting": "[2]; 10, 20 and 50 mg/l toluene", "result": "approximately 90 namp"}, {"measurement": "maximum light response", "setting": "[3]; 10 mg/L toluene square-wave feed, 20 mg/L TCE", "result": "43.4±6.8", "unit": "namp"}, {"measurement": "rate of light response decrease", "setting": "[3]; after the toluene feed was stopped", "result": "3.4±0.8", "unit": "namp/hr"}, {"measurement": "rate of light emission increase", "setting": "[3]; during toluene feed cycle, 10 mg/L toluene, 20 mg/L TCE", "result": "16.3±1.2", "unit": "namp/hr"}, {"measurement": "effluent toluene concentration", "setting": "[3]; inlet toluene 10 mg/L", "result": "5.8 ± 0.1", "unit": "mg/L"}, {"measurement": "toluene removal", "setting": "[3]; inlet toluene 10 mg/L", "result": 50, "unit": "%"}, {"measurement": "ratio toluene degraded to TCE degraded", "setting": "[3]; steady state in DVR", "result": "1.7 μmol toluene degraded/μmol TCE degraded"}, {"measurement": "maximum bioluminescent response", "setting": "[4]; same for single and multiple exposures", "result": "573±127", "unit": "namp"}, {"measurement": "Bioluminescent response rate, Multiple Exposure Vial", "setting": "[4]; time point 1", "result": 95, "unit": "NAMP/HR"}, {"measurement": "Bioluminescent response rate, Single Exposure Vials", "setting": "[4]; time point 2", "result": 137, "unit": "NAMP/HR"}, {"measurement": "Bioluminescent response rate, Multiple Exposure Vial", "setting": "[4]; time point 2", "result": 321, "unit": "NAMP/HR"}, {"measurement": "Bioluminescent response rate, Single Exposure Vials", "setting": "[4]; time point 3", "result": 67, "unit": "NAMP/HR"}, {"measurement": "Bioluminescent response rate, Multiple Exposure Vial", "setting": "[4]; time point 3", "result": 642, "unit": "NAMP/HR"}, {"measurement": "Bioluminescent response rate, Single Exposure Vials", "setting": "[4]; time point 4", "result": 60, "unit": "NAMP/HR"}, {"measurement": "Bioluminescent response rate, Multiple Exposure Vial", "setting": "[4]; time point 4", "result": 768, "unit": "NAMP/HR"}, {"measurement": "Bioluminescent response rate, Single Exposure Vials", "setting": "[4]; time point 5", "result": 60, "unit": "NAMP/HR"}, {"measurement": "Bioluminescent response rate, Multiple Exposure Vial", "setting": "[4]; time point 5", "result": 737, "unit": "NAMP/HR"}, {"measurement": "Bioluminescent response rate, Single Exposure Vials", "setting": "[4]; time point 6", "result": 49, "unit": "NAMP/HR"}, {"measurement": "Bioluminescent response rate, Multiple Exposure Vial", "setting": "[4]; time point 6", "result": 973, "unit": "NAMP/HR"}]}]}
